Earlier results, collected in US11052155B2, “Conjugates of CC-1065 analogs and bifunctional linkers” (priority 2010, dated 2021).

Settings: in vivo

## COc1c(O)c2c(c3cc(C(=O)N4CCc5c4c(O)c(OC)c4[nH]c(C(=O)N6CC7CC78C6=CC(=O)c6[nH]cc(C)c68)cc54)[nH]c13)CCN2C(N)=O (stereo not shown) [CC-1065]
  hepatotoxicity: serious delayed hepatotoxicity
